Measurements from patent publication US20220089575A1, “FARNESOID X RECEPTOR AGONISTS AND USES THEREOF” (Metacrine, Inc., priority 2017, published 2022).

Molecular target: T1, hFXR (Homo sapiens, UniProt Q96RI1)
T1 construct: expressed in transfected cells; host or cells: CV-1 cells
T1 sequence (Q96RI1 1-486): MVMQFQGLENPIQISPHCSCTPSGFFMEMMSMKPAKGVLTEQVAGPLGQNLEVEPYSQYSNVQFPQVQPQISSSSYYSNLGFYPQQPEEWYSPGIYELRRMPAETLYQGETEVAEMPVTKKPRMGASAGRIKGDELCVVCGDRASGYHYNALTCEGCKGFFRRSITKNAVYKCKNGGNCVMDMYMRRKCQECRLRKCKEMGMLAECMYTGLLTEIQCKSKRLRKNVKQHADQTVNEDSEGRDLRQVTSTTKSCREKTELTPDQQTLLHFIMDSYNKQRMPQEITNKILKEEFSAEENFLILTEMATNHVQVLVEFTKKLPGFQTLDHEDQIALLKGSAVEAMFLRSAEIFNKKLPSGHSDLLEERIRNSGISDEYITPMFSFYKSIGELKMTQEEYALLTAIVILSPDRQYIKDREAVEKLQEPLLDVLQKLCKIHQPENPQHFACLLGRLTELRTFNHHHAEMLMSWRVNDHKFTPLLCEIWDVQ
T1 sequence (P19793 1-462 partner): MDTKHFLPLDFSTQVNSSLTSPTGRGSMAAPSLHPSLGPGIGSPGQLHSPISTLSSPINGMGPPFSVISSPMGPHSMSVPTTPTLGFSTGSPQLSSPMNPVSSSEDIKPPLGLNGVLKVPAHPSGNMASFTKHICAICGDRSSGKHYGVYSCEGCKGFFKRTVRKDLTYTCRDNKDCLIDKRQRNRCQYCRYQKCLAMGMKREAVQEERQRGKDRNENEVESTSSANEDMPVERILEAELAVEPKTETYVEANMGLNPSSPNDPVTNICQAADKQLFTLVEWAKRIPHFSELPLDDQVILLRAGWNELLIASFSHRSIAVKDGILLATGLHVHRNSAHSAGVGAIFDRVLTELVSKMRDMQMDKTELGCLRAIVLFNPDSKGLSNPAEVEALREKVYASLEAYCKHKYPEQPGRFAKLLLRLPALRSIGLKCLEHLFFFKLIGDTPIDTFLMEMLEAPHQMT
Assay: In Vitro FXR Assay (TK): TK-ECRE-luc reporter in transfected CV-1 cells
Assay type: cell-based
Conditions: 18 hrs, luminescence, maximum efficacy of <25% of the Fexarmine control classified as '+'
Method in brief: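 Luciferase read-out after 18 h compound exposure of CV-1 cells carrying transfected hFXR plus hRXR expression plasmids, TK-ECRE-luc reporter and pCMX-YFP. Cells cultured in charcoal-stripped FBS before transfection; compounds serially diluted in DMSO.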

Structure (SMILES): COCCNC(=O)O[C@H]1CC[C@H](C(=O)N(C[C@H]2CC[C@H](c3ccc(OC)c(C)n3)CC2)c2cc(-c3coc(C4CC4)n3)ccn2)CC1 [Compound 6.56, trans-4-((4-(2-Cyclopropyloxazol-4-yl)pyridine-2-yl)((trans-4-(5-methoxy-6-methylpyridin-2-yl)cyclohexyl)methyl)carbamoyl)cyclohexyl (2-methoxyethyl) carbamate]
- EC50: ≤ 250 nM

Structure (SMILES): COc1ccc([C@H]2CC[C@H](CN(c3cc(-c4coc(C5CC5)n4)ccn3)C(=O)[C@H]3CC[C@H](OC(=O)NC4CC4)CC3)CC2)nc1C [Compound 6.57, trans-4-((4-(2-Cyclopropyloxazol-4-yl)pyridine-2-yl)((trans-4-(5-methoxy-6-methylpyridin-2-yl)cyclohexyl)methyl)carbamoyl)cyclohexyl cyclopropylcarbamate]
- EC50: ≤ 250 nM

Structure (SMILES): COc1ccc([C@H]2CC[C@H](CN(c3cc(-c4coc(C5CC5)n4)ccn3)C(=O)[C@H]3CC[C@H](OC(=O)NC(C)C)CC3)CC2)nc1C [Compound 6.58, trans-4-((4-(2-Cyclopropyloxazol-4-yl)pyridine-2-yl)((trans-4-(5-methoxy-6-methylpyridin-2-yl)cyclohexyl)methyl)carbamoyl)cyclohexyl isopropylcarbamate]
- EC50: ≤ 250 nM

Structure (SMILES): COc1ccc([C@H]2CC[C@H](CN(c3cc(-c4coc(C5CC5)n4)ccn3)C(=O)[C@H]3CC[C@H](OC(=O)N4CCOCC4)CC3)CC2)nc1C [Compound 6.59, trans-4-((4-(2-Cyclopropyloxazol-4-yl)pyridine-2-yl)((trans-4-(5-methoxy-6-methylpyridin-2-yl)cyclohexyl)methyl)carbamoyl)cyclohexyl morpholine-4-carboxylate]
- EC50: ≤ 250 nM

Structure (SMILES): COc1ccc([C@H]2CC[C@H](CN(c3cc(-c4coc(C5CC5)n4)ccn3)C(=O)[C@H]3CC[C@H](OC(=O)NC4COC4)CC3)CC2)nc1C [Compound 6.60, trans-4-((4-(2-Cyclopropyloxazol-4-yl)pyridine-2-yl)((trans-4-(5-methoxy-6-methylpyridin-2-yl)cyclohexyl)methyl)carbamoyl)cyclohexyl oxetan-3-ylcarbamate]
- EC50: ≤ 250 nM

Structure (SMILES): COc1ccc([C@H]2CC[C@H](CN(c3cc(-c4coc(C5CC5)n4)ccn3)C(=O)[C@H]3CC[C@H](OC(=O)N4CC(S(C)(=O)=O)C4)CC3)CC2)nc1C [Compound 6.61]
- EC50: ≤ 250 nM

Structure (SMILES): COc1ccc([C@H]2CC[C@H](CN(c3cc(-c4coc(C5CC5)n4)ccn3)C(=O)[C@H]3CC[C@H](OC(=O)NCCCO)CC3)CC2)nc1C [Compound 6.62]
- EC50: ≤ 250 nM

Structure (SMILES): COCCN(C)C(=O)O[C@H]1CC[C@H](C(=O)N(C[C@H]2CC[C@H](c3ccc(OC)c(C)n3)CC2)c2cc(-c3coc(C4CC4)n3)ccn2)CC1 [Compound 6.63]
- EC50: ≤ 250 nM

Structure (SMILES): COc1ccc([C@H]2CC[C@H](CN(c3cc(-c4coc(C5CC5)n4)ccn3)C(=O)[C@H]3CC[C@H](OC(=O)N4CCN(C)CC4)CC3)CC2)cc1C [Compound 6.64, trans-4-((4-(2-Cyclopropyloxazol-4-yl)pyridine-2-yl)((trans-4-(4-methoxy-3-methylphenyl)cyclohexyl)methyl)carbamoyl)cyclohexyl 4-methylpiperazine-1-carboxylate]
- EC50: ≤ 250 nM

Structure (SMILES): COc1ccc([C@H]2CC[C@H](CN(c3cc(-c4coc(C5CC5)n4)ccn3)C(=O)[C@H]3CC[C@H](OC(=O)N4CCN(C)CC4)CC3)CC2)nc1C [Compound 6.65, trans-4-((4-(2-Cyclopropyloxazol-4-yl)pyridine-2-yl)((trans-4-(5-methoxy-6-methylpyridin-2-yl)cyclohexyl)methyl)carbamoyl)cyclohexyl 4-methylpiperazine-1-carboxylate]
- EC50: ≤ 250 nM

Structure (SMILES): COc1ccc([C@H]2CC[C@H](CN(c3cc(-c4coc(C5CC5)n4)ccn3)C(=O)[C@H]3CC[C@H](OC(=O)NC[C@H](O)CO)CC3)CC2)nc1C [Compound 6.66, trans-4-((4-(2-Cyclopropyloxazol-4-yl)pyridine-2-yl)((trans-4-(5-methoxy-6-methylpyridin-2-yl)cyclohexyl)methyl)carbamoyl)cyclohexyl ((S)-2,3-dihydroxypropyl)carbamate]
- EC50: 250 to 1000 nM

Structure (SMILES): COc1ccc([C@H]2CC[C@H](CN(c3cc(-c4coc(C5CC5)n4)ccn3)C(=O)[C@H]3CC[C@H](OC(=O)N(C)CC(C)O)CC3)CC2)nc1C (stereo partly drawn) [Compound 6.67, trans-4-((4-(2-Cyclopropyloxazol-4-yl)pyridin-2-yl)((trans-4-(5-methoxy-6-methylpyridin-2-yl)cyclohexyl)methyl)carbamoyl)cyclohexyl(2-hydroxypropyl)(methyl)carbamate]
- EC50: ≤ 250 nM

Structure (SMILES): COc1ccc([C@H]2CC[C@H](CN(c3cc(-c4coc(C5CC5)n4)ccn3)C(=O)[C@H]3CC[C@H](OC(=O)NCC(C)(O)C(C)C)CC3)CC2)nc1C (stereo partly drawn) [Compound 6.68, trans-4-((4-(2-Cyclopropyloxazol-4-yl)pyridin-2-yl)((trans-4-(5-methoxy-6-methylpyridin-2-yl)cyclohexyl)methyl)carbamoyl)cyclohexyl (2-hydroxy-2,3-dimethylbutyl)carbamate]
- EC50: ≤ 250 nM

Structure (SMILES): CCC(C)(O)CNC(=O)O[C@H]1CC[C@H](C(=O)N(C[C@H]2CC[C@H](c3ccc(OC)c(C)n3)CC2)c2cc(-c3coc(C4CC4)n3)ccn2)CC1 (stereo partly drawn) [Compound 6.69, trans-4-((4-(2-Cyclopropyloxazol-4-yl)pyridin-2-yl)((trans-4-(5-methoxy-6-methylpyridin-2-yl)cyclohexyl)methyl)carbamoyl)cyclohexyl (2-hydroxy-2-methylbutyl)carbamate]
- EC50: ≤ 250 nM

Structure (SMILES): COc1ccc([C@H]2CC[C@H](CN(c3cc(-c4coc(C5CC5)n4)ccn3)C(=O)[C@H]3CC[C@H](OC(=O)NCC(C)(C)O)CC3)CC2)nc1C [Compound 6.70, trans-4-((4-(2-Cyclopropyloxazol-4-yl)pyridin-2-yl)((trans-4-(5-methoxy-6-methylpyridin-2-yl)cyclohexyl)methyl)carbamoyl)cyclohexyl (2-hydroxy-2-methylpropyl)carbamate]
- EC50: ≤ 250 nM

Structure (SMILES): COc1ccc([C@H]2CC[C@H](CN(c3cc(-c4coc(C5CC5)n4)ccn3)C(=O)[C@H]3CC[C@H](OC(=O)NC(C)CO)CC3)CC2)nc1C (stereo partly drawn) [Compound 6.71, trans-4-((4-(2-Cyclopropyloxazol-4-yl)pyridin-2-yl)((trans-4-(5-methoxy-6-methylpyridin-2-yl)cyclohexyl)methyl)carbamoyl)cyclohexyl (1-hydroxypropan-2-yl)carbamate]
- EC50: ≤ 250 nM

Structure (SMILES): COc1ccc([C@H]2CC[C@H](CN(c3cc(-c4coc(C5CC5)n4)ccn3)C(=O)[C@H]3CC[C@H](OC(=O)NCC(C)O)CC3)CC2)nc1C (stereo partly drawn) [Compound 6.72, trans-4-((4-(2-Cyclopropyloxazol-4-yl)pyridin-2-yl)((trans-4-(5-methoxy-6-methylpyridin-2-yl)cyclohexyl)methyl)carbamoyl)cyclohexyl (2-hydroxypropyl)carbamate]
- EC50: ≤ 250 nM

Structure (SMILES): COc1ccc([C@H]2CC[C@H](CN(c3cc(-c4coc(C5CC5)n4)ccn3)C(=O)[C@H]3CC[C@H](OC(=O)NC(C)C(C)O)CC3)CC2)nc1C (stereo partly drawn) [Compound 6.73, trans-4-((4-(2-Cyclopropyloxazol-4-yl)pyridin-2-yl)((trans-4-(5-methoxy-6-methylpyridin-2-yl)cyclohexyl)methyl)carbamoyl)cyclohexyl (3-hydroxybutan-2-yl)carbamate]
- EC50: ≤ 250 nM

Structure (SMILES): CCN(CCO)C(=O)O[C@H]1CC[C@H](C(=O)N(C[C@H]2CC[C@H](c3ccc(OC)c(C)n3)CC2)c2cc(-c3coc(C4CC4)n3)ccn2)CC1 [Compound 6.74, trans-4-((4-(2-Cyclopropyloxazol-4-yl)pyridin-2-yl)((trans-4-(5-methoxy-6-methylpyridin-2-yl)cyclohexyl)methyl)carbamoyl)cyclohexyl ethyl(2-hydroxyethyl)carbamate]
- EC50: ≤ 250 nM

Structure (SMILES): COc1ccc([C@H]2CC[C@H](CN(c3cc(-c4coc(C(C)C)n4)ccn3)C(=O)[C@H]3CC[C@H](OC(=O)N4CC(S(C)(=O)=O)C4)CC3)CC2)nc1C [Compound 6.75, trans-4-((4-(2-Isopropyloxazol-4-yl)pyridine-2-yl)((trans-4-(5-methoxy-6-methylpyridin-2-yl)cyclohexyl)methyl)carbamoyl)cyclohexyl 3-(methylsulfonyl)azetidine-1-carboxylate]
- EC50: ≤ 250 nM

Structure (SMILES): COc1ccc([C@H]2CC[C@H](CN(c3cc(-c4coc(C5CC5)n4)ccn3)C(=O)[C@H]3CC[C@H](OC(=O)N4CC(OCCO)C4)CC3)CC2)nc1C [Compound 6.76, trans-4-((4-(2-Cyclopropyloxazol-4-yl)pyridine-2-yl)((trans-4-(5-methoxy-6-methylpyridin-2-yl)cyclohexyl)methyl)carbamoyl)cyclohexyl 3-(2-hydroxyethoxy)azetidine-1-carboxylate]
- EC50: ≤ 250 nM
